Drawing on ChEMBL document CHEMBL3217503, “Antivascular and anticancer activity of dihalogenated A-ring analogues of combretastatin A-4” (Medchemcomm, 2010), this text covers EC50 and Activity for eight molecules.

One series relates to K562. The experiment in a line: Cytotoxicity against human K562 cells. In kind it is functional, cell-based.
The subject of series [1] is HUVEC. In words: Antivascular activity in growth factor-induced HUVEC after 45 hrs xCELLigence analysis. Format: functional, cell-based. Particulars: Homo sapiens.
The subject of series [2] is SK-OV-3. The experiment in a line: Cell cycle arrest in human SKOV3 cells assessed as accumulation at G2/M phase at 200 nM after 24 hrs by propidium iodide staining-based flow cytometry (reference value: 13.6%). Format: functional.
The subject of series [3] is HUVEC. In words: Antivascular activity in growth factor-induced HUVEC after 24 hrs xCELLigence analysis. In kind it is functional, cell-based. Particulars: Homo sapiens.
The subject of series [4] is SK-OV-3. In words: Cell cycle arrest in human SKOV3 cells assessed as accumulation at G1 phase at 5 nM after 24 hrs by propidium iodide staining-based flow cytometry (reference value: 54.4%). In kind it is functional. On the technique in general: Flow cytometry measures light scatter and fluorescence of single cells or particles in a stream.
For series [5], the system named is SK-OV-3. In words: Cell cycle arrest in human SKOV3 cells assessed as accumulation at G2/M phase at 5 nM after 24 hrs by propidium iodide staining-based flow cytometry (reference value: 13.6%). In kind it is functional.
Series [6] concerns SK-OV-3. In words: Cell cycle arrest in human SKOV3 cells assessed as accumulation at S phase at 5 nM after 24 hrs by propidium iodide staining-based flow cytometry (reference value: 31.2%). In kind it is functional.
Series [7] concerns SK-OV-3. In words: Cytotoxicity against taxol-resistant human SKOV3 cells assessed as cell viability after 48 hrs by MTS assay. In kind it is functional, cell-based. The following applies: SK-OV-3, 48 h.
Series [8] deals with HeLa. In words: Antimitotic activity in human HeLa cells assessed as depolymerisation of interphase microtubule network at 10 to 100 nM after 16 hrs by Hoechst staining-based confocal microscopy. In kind it is functional, cell-based.
The test system of series [9] is HUVEC. In words: Antiproliferative activity against growth factor-induced HUVEC assessed as growth inhibition after 48 hrs by MTS assay. Format: functional, cell-based. Particulars: Homo sapiens.
The subject of series [10] is HeLa. The experiment in a line: Antimitotic activity in human HeLa cells assessed as change in interphase microtubule network at 1 nM after 16 hrs by Hoechst staining-based confocal microscopy. In kind it is functional, cell-based.
For series [11], the system named is SK-OV-3. In words: Cytotoxicity against human SKOV3 cells assessed as cell viability after 48 hrs by MTS assay. Particulars: SK-OV-3, 48 h. In kind it is functional, cell-based. In general terms: Formazan colour is commonly taken as a measure of viable cells.
In another series the test system is PBMC. In words: Cytotoxicity in human PBMC assessed as cell viability up to 10 uM after 48 hrs by MTS assay. Format: cell-based.
Series [12] concerns HeLa. In words: Cytotoxicity against human HeLa cells assessed as cell viability after 48 hrs by MTS assay. Format: functional, cell-based.
For series [13], the system named is SK-OV-3. The experiment in a line: Antimitotic activity in taxol-resistant human SKOV3 cells at 1 to 100 nM after 16 hrs by Hoechst staining-based confocal microscopy. Format: functional, cell-based.
For series [14], the system named is SK-OV-3. In words: Antimitotic activity in human SKOV3 cells at 1 to 100 nM after 16 hrs by Hoechst staining-based confocal microscopy. In kind it is functional, cell-based.
The subject of series [15] is HeLa. The experiment in a line: Antimitotic activity in human HeLa cells expressing GFP-tagged tubulin assessed as membrane blebbing during interphase at 10 to 100 nM after 31 to 34 mins by fluorescence-based spinning-disk confocal microscopy. In kind it is functional, cell-based.
Series [16] concerns HeLa. The experiment in a line: Antimitotic activity in human HeLa cells expressing GFP-tagged tubulin assessed as collapse of mitotic spindle during anaphase at 10 nM after 31 mins by fluorescence-based spinning-disk confocal microscopy. Format: functional, cell-based.
Series [17] relates to HeLa. The experiment in a line: Antimitotic activity in human HeLa cells assessed as depolymerisation of interphase microtubule network at 0.1 to 1 uM after 16 hrs by Hoechst staining-based confocal microscopy. Format: functional, cell-based.
In series [18] the test system is HeLa. The experiment in a line: Antimitotic activity in human HeLa cells expressing GFP-tagged tubulin assessed as membrane blebbing during interphase at 10 nM after 51 mins by fluorescence-based spinning-disk confocal microscopy. Format: functional, cell-based.
Series [19] concerns HeLa. In words: Antimitotic activity in human HeLa cells expressing GFP-tagged tubulin assessed as disappearance of mitotic spindle during metaphase at 10 to 100 nM after 21 to 36 mins by fluorescence-based spinning-disk confocal microscopy. Format: functional, cell-based.
For series [20], the system named is HeLa. The experiment in a line: Antimitotic activity in human HeLa cells assessed as membrane blebbing at 0.1 to 1 uM after 16 hrs by Hoechst staining-based confocal microscopy. Format: functional, cell-based.
Series [21] deals with HeLa. The experiment in a line: Antimitotic activity in human HeLa cells assessed as redistribution of microtubules around nuclear envelope of cells at 100 nM after 16 hrs by Hoechst staining-based confocal microscopy. Format: functional, cell-based.
Series [22] relates to HeLa. In words: Antimitotic activity in human HeLa cells assessed as disproportionate mitotic cells at 10 nM after 16 hrs by Hoechst staining-based confocal microscopy. Format: functional, cell-based.

Active and inactive are the calls of the source. The rule behind the calls is not given here.

For the molecule `COc1ccc(/C=C\c2ccccc2)cc1O`, the EC50 (as a rule, the midpoint of the concentration-response curve) in the series on K562 was 500 nM.

In the case of `COc1ccc(/C=C\c2cc(F)c(OC)c(F)c2)cc1O`, the EC50 turned out to be 224 nM in the series with HUVEC [1] and 193 nM in the series with HUVEC [3]. Also, the Activity with SK-OV-3 [2] was 73.7%.

Molecule `COc1ccc(/C=C\c2ccc(C)c(C)c2)cc1O` came in with a concentration for a half-maximal effect (EC50) in the series with K562 of 70 nM.

In the case of `COc1ccc(/C=C\c2cc(I)c(OC)c(I)c2)cc1O`, the EC50 in the series with HUVEC [1] and in the series with HUVEC [3] was 0.9 nM each time. Also, the values for the Activity in the series with SK-OV-3 [4], with SK-OV-3 [5] and in the series with SK-OV-3 [6] were 1.3%, 83.6% and 12.9%, respectively.

Consider `COc1ccc(/C=C\c2cc(OC)c(OC)c(OC)c2)cc1O` [COMBRETASTATIN A4], for which the EC50 with SK-OV-3 [7] stood at 3.1 nM; in the series on HUVEC [1], 0.9 nM; in the series with HUVEC [9], 3.2 nM; with K562, 1 nM; in the series on SK-OV-3 [11], 1.2 nM; with HeLa [12] it was 1.4 nM. In addition, the midpoint of the response in the series with HUVEC [3], the EC50, lay at 1.9 nM. In the series with HeLa [8], the result was Active. In addition, the Activity in the series with SK-OV-3 [4] is 40.1%; in the series on PBMC, “Non-toxic”; in the series with SK-OV-3 [5] it was 30.5%; with SK-OV-3 [6] it was 23.1%. For the same molecule, in the series on HeLa [10], the outcome was inactive.

In the case of `COc1ccc(/C=C\c2cc(Cl)c(OC)c(Cl)c2)cc1O`, the EC50 in the series with HUVEC [1] worked out at 2.3 nM; with HUVEC [3], 2.6 nM. In addition, the Activity came out at 43.7% in the series on SK-OV-3 [4], 32.2% with SK-OV-3 [5] and 18.6% in the series on SK-OV-3 [6].

In turn, `COc1ccc(/C=C\c2cc(C)c(C)c(C)c2)cc1O` displayed an EC50 in the series on K562 of 20 nM.

For the molecule `COc1ccc(/C=C\c2cc(Br)c(OC)c(Br)c2)cc1O`, the result in the series with SK-OV-3 [13], with SK-OV-3 [14], with HeLa [15], in the series with HeLa [16], in the series on HeLa [17] and in the series with HeLa [18] was Active. The outcome in the series with HeLa [19], in the series on HeLa [20], in the series on HeLa [21] and in the series with HeLa [22] was Active. In addition, the EC50 in the series on SK-OV-3 [7] worked out at 1.1 nM; in the series on HUVEC [1], 1.1 nM; in the series on HUVEC [9], 0.2 nM; with SK-OV-3 [11], 1.7 nM; with HeLa [12] it was 6.7 nM; with HUVEC [3], 2.2 nM. Moreover, the Activity was 25.7% in the series on SK-OV-3 [4], “Non-toxic” in the series with PBMC, 51.5% with SK-OV-3 [5] and 21% in the series on SK-OV-3 [6].
